Reference: patent publication US11045482B2, “Use of glucocorticoid receptor modulators in the treatment of catecholamine-secreting tumors” (Corcept Therapeutics, Inc., priority 2017, dated 2021)

What was measured:
PNMT mRNA = settings: intact rats; cited from earlier work
[1] = system: metastatic pheochromocytoma associated with ectopic ACTH secretion; assay: Case of a person with metastatic pheochromocytoma and Cushing syndrome given mifepristone (Example 1); type: in vivo, human; settings: for catecholamine excess symptoms (palpitations, tremors and panic attacks): despite high dose of atenolol and phenoxybenzamine, before mifepristone
Experimental: A person with metastatic pheochromocytoma associated with ectopic ACTH secretion unresponsive to conventional chemotherapy with CVD (cyclophosphamide, vincristine and dacarbazine) and Sunitinib (tyrosine kinase inhibitors) was enrolled in a phase 2 study with a somatostatin analog. […] At the same time the diagnosis of Cushing syndrome was made and 300 mg of Mifepristone was added to their regimen and the dose was further increased to 600 mg daily two weeks later. […] The plasma epinephrine level after 2 weeks of therapy with mifepristone was decreased by 50%, and the plasma metanephrine level was decreased by 25% after 9 weeks of therapy.

[2] = system: pheochromocytoma crisis (PC); settings: cited from earlier work
[3] = system: metastatic or unresectable catecholamine-secreting tumor; assay: Patient with metastatic or unresectable catecholamine-secreting tumor: blood catecholamine level after five weeks of treatment (Examples 2-77); type: in vivo, human
Experimental: (§1) A patient having a metastatic or unresectable catecholamine-secreting tumor, who is not in need of treatment with a glucocorticoid receptor antagonist, and is not receiving exogenous glucocorticoid receptor agonist treatment, is administered an effective amount of mifepristone at a daily dose of 50 mg/kg/day.
as §1, with “20” for “50”
as §1, with “15” for “50”
as §1, with “10” for “50”
as §1, with “5” for “50”
as §1, with “mg/kg/day, and is also administered chemotherapy.” for “mg/kg/day.”
as §1, with “20 mg/kg/day, and is also administered chemotherapy.” for “50 mg/kg/day.”
as §1, with “15 mg/kg/day, and is also administered chemotherapy.” for “50 mg/kg/day.”
as §1, with “10 mg/kg/day, and is also administered chemotherapy.” for “50 mg/kg/day.”
as §1, with “5 mg/kg/day, and is also administered chemotherapy.” for “50 mg/kg/day.”
as §1, with “mg/kg/day, and is also administered an adrenergic antagonist. […]” for “mg/kg/day.”

[4] = system: rat phenylethanolamine N-methyltransferase (PNMT) gene promoter; settings: RU486 10 μM; cited from earlier work
[5] = system: PNMT mRNA and enzyme expression; settings: rats, depletion of corticosteroids by hypophysectomy; cited from earlier work
[6] = after 3 months of therapy with mifepristone
[7] = one week after the discontinuation of mifepristone

For `CC#CC1(O)CC[C@H]2[C@@H]3C=C(C)C4=CC(=O)C=C[C@]4(C)[C@H]3C(O)C[C@@]21C` (some centres unmarked) [RU28362, 11,17-dihydroxy-6-methyl-17-(1-propynyl)androsta-1,4,6-triene-3-one], the “PNMT mRNA levels” value (PNMT mRNA) is listed as “rise markedly”.
In the case of `CC(C)NCC(O)COc1ccc(CC(N)=O)cc1` (centres unmarked) [atenolol], the “catecholamine excess symptoms (palpitations, tremors and panic attacks)” value [1] is reported as “continued to experience significant catecholamine excess symptoms”.
In the case of `C[C@@H]1C[C@H]2[C@@H]3CCC4=CC(=O)C=C[C@]4(C)[C@@]3(F)[C@@H](O)C[C@]2(C)[C@@]1(O)C(=O)CO` [dexamethasone], the pheochromocytoma crisis cases ([2]; 1 mg given as a DST in patients with pheochromocytoma) is listed as “no cases have been reported” and the pheochromocytoma crisis ([2]; larger doses, as low as 2 mg) is listed as “may trigger a PC”.
In the case of `CC#C[C@]1(O)CC[C@H]2[C@@H]3CCC4=CC(=O)CCC4=C3[C@@H](c3ccc(N(C)C)cc3)C[C@@]21C` [mifepristone, 11β-(4-dimethylaminophenyl)-17β-hydroxy-17α-(1-propynyl)-estra-4,9-dien-3-one], the “blood level of a catecholamine after five weeks of treatment as compared to the initial level” value (from here on “blood level … compared to the initial level”) ([3]; daily dose of 1 mg/kg/day, also administered somatostatin) is reported as “lower”, the “blood level … compared to the initial level” value ([3]; daily dose of 5 mg/kg/day) is reported as “lower” and the “blood level … compared to the initial level” value ([3]; daily dose of 5 mg/kg/day, also administered a somatostatin analog) is reported as “lower”. The “blood level … compared to the initial level” value ([3]; daily dose of 5 mg/kg/day, also administered an adrenergic antagonist) was “lower”, the “blood level … compared to the initial level” value ([3]; daily dose of 5 mg/kg/day, also administered chemotherapy) was “lower” and the “blood level … compared to the initial level” value ([3]; daily dose of 5 mg/kg/day, also administered somatostatin) was “lower”. For the same molecule, the “blood level … compared to the initial level” value ([3]; daily dose of 5 mg/kg/day, also receives Peptide Receptor Radionuclide Therapy) was “lower”, the “blood level … compared to the initial level” value ([3]; daily dose of 10 mg/kg/day) was “lower” and the “blood level … compared to the initial level” value ([3]; daily dose of 10 mg/kg/day, also administered a somatostatin analog) was “lower”. For the same molecule, the “blood level … compared to the initial level” value ([3]; daily dose of 10 mg/kg/day, also administered an adrenergic antagonist) was “lower”, the “blood level … compared to the initial level” value ([3]; daily dose of 10 mg/kg/day, also administered chemotherapy) was “lower” and the “blood level … compared to the initial level” value ([3]; daily dose of 10 mg/kg/day, also administered somatostatin) was “lower”. For the same molecule, the “blood level … compared to the initial level” value ([3]; daily dose of 10 mg/kg/day, also receives Peptide Receptor Radionuclide Therapy) was “lower”, the “blood level … compared to the initial level” value ([3]; daily dose of 15 mg/kg/day) was “lower” and the “blood level … compared to the initial level” value ([3]; daily dose of 15 mg/kg/day, also administered a somatostatin analog) was “lower”. For the same molecule, the “blood level … compared to the initial level” value ([3]; daily dose of 15 mg/kg/day, also administered chemotherapy) was “lower”, the “blood level … compared to the initial level” value ([3]; daily dose of 15 mg/kg/day, also receives Peptide Receptor Radionuclide Therapy) was “lower” and the “blood level … compared to the initial level” value ([3]; daily dose of 20 mg/kg/day) was “lower”. The “blood level … compared to the initial level” value ([3]; daily dose of 20 mg/kg/day, also administered a somatostatin analog) was “lower”, the “blood level … compared to the initial level” value ([3]; daily dose of 20 mg/kg/day, also administered an adrenergic antagonist) was “lower” and the “blood level … compared to the initial level” value ([3]; daily dose of 20 mg/kg/day, also administered an adrenergic antagonist and Peptide Receptor Radionuclide Therapy) was “lower”. For the same molecule, the “blood level … compared to the initial level” value ([3]; daily dose of 20 mg/kg/day, also administered chemotherapy) was “lower”, the “blood level … compared to the initial level” value ([3]; daily dose of 20 mg/kg/day, also administered chemotherapy and a somatostatin analog) was “lower” and the “blood level … compared to the initial level” value ([3]; daily dose of 20 mg/kg/day, also administered chemotherapy and an adrenergic antagonist) was “lower”. For the same molecule, the “blood level … compared to the initial level” value ([3]; daily dose of 20 mg/kg/day, also administered chemotherapy and somatostatin) was “lower”, the “blood level … compared to the initial level” value ([3]; daily dose of 20 mg/kg/day, also administered somatostatin) was “lower” and the “blood level … compared to the initial level” value ([3]; daily dose of 20 mg/kg/day, also receives Peptide Receptor Radionuclide Therapy) was “lower”. For the same molecule, the “blood level … compared to the initial level” value ([3]; daily dose of 50 mg/kg/day) was “lower”, the “blood level … compared to the initial level” value ([3]; daily dose of 50 mg/kg/day, also administered an adrenergic antagonist) was “lower” and the “blood level … compared to the initial level” value ([3]; daily dose of 50 mg/kg/day, also administered chemotherapy) was “lower”. The “blood level … compared to the initial level” value ([3]; single pharmaceutical composition comprising 50 mg mifepristone and a somatostatin analog, daily for five weeks) was “lower”, the “blood level … compared to the initial level” value ([3]; single pharmaceutical composition comprising 50 mg mifepristone and an adrenergic antagonist, daily for five weeks, also chemotherapy) was “lower” and the “blood level … compared to the initial level” value ([3]; single pharmaceutical composition comprising 50 mg mifepristone and somatostatin, daily for five weeks) was “lower”. For the same molecule, the “blood level … compared to the initial level” value ([3]; single pharmaceutical composition comprising 100 mg mifepristone and a somatostatin analog, daily for five weeks) was “lower”, the “blood level … compared to the initial level” value ([3]; single pharmaceutical composition comprising 100 mg mifepristone and an adrenergic antagonist, daily for five weeks) was “lower” and the “blood level … compared to the initial level” value ([3]; single pharmaceutical composition comprising 100 mg mifepristone and an adrenergic antagonist, daily for five weeks, also chemotherapy) was “lower”. For the same molecule, the “blood level … compared to the initial level” value ([3]; single pharmaceutical composition comprising 100 mg mifepristone and somatostatin, daily for five weeks) was “lower”, the “blood level … compared to the initial level” value ([3]; single pharmaceutical composition comprising 300 mg mifepristone and a somatostatin analog, daily for five weeks) was “lower” and the “blood level … compared to the initial level” value ([3]; single pharmaceutical composition comprising 300 mg mifepristone and an adrenergic antagonist, daily for five weeks) was “lower”. The “blood level … compared to the initial level” value ([3]; single pharmaceutical composition comprising 300 mg mifepristone and an adrenergic antagonist, daily for five weeks, also chemotherapy) was “lower”, the “blood level … compared to the initial level” value ([3]; single pharmaceutical composition comprising 300 mg mifepristone and somatostatin, daily for five weeks) was “lower” and the “inhibition of dexamethasone (1 μM) activation of the PNMT promoter” value [4] was “fully inhibited”. For the same molecule, the “plasma epinephrine level decreased by” value ([1]; after 2 weeks of therapy with mifepristone (300 mg)) was 50%, the metanephrine level [1, 6] was “slightly elevated” and the “symptoms of catecholamine excess” value [1, 6] was “controlled”. The adverse event ([1]; after 3 months of therapy, mifepristone temporarily withheld) was “vaginal bleeding”, the “plasma metanephrine level decreased by” value ([1]; after 9 weeks of therapy (300 mg, increased to 600 mg daily two weeks later)) was 25% and the “metanephrine measurement after discontinuation compared to the level during mifepristone dosing” value [1, 7] was “fourfold increase”. The “symptoms of catecholamine excess after discontinuation” value [1, 7] was “worse symptoms of catecholamine excess” and the “symptoms related to cortisol excess as well as to catecholamine excess” value ([1]; one week after the institution of mifepristone (300 mg), added to somatostatin analog, atenolol, phenoxybenzamine) was “dramatic improvement”.
In the case of `CC(COc1ccccc1)N(CCCl)Cc1ccccc1` (centres unmarked) [phenoxybenzamine], the “catecholamine excess symptoms (palpitations, tremors and panic attacks)” value [1] is reported as “continued to experience significant catecholamine excess symptoms”.
For “adrenocorticotropin: stimulates endogenous glucocorticoid production (SYSMEHFRWGKPVGKKRRPVKVYPNGAEDESAEAFPLEF; Corticotropin; UniProt P01189 138-176, looked up)”, the “decrease of PNMT mRNA and enzyme expression after hypophysectomy” value [5] is listed as “reversed”.
